According to PubChem BioAssay AID1918958 (Molecular Pharmacology Branch, DTP, NCI, 2023):

Tested on: NCI-H196 complex spheroid viability
Experiment: Anticancer human tumor NCI-H196 cell line growth inhibition [LSD1];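 further: spheroids exposed to agents for 7 days before readout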;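 on viability, T/C: 100% = DMSO vehicle control viability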
Details: for IC50: curve of first compound; for viability, T/C: stronger effect = lower value; active means viability on the fitted dose curve at most 10% of control; inactive means the rest
Method in brief: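 Drug combinations with the LSD1 inhibitor iadademstat tested on tumor cells co-cultured as spheroids with endothelial cells and mesenchymal stem cells. Concentrations descended in half-log increments from clinical Cmax or 10 microM.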

[1] = second compound 0.1 µM, first compound 0.000949 µM
[2] = second compound 0.1 µM, first compound 0.003 µM
[3] = second compound 0.1 µM, first compound 0.00949 µM
[4] = second compound 0.1 µM, first compound 0.03 µM
[5] = second compound 0.1 µM, first compound 0.0949 µM
[6] = second compound 0.1 µM, first compound 0.3 µM
[7] = second compound 0.316 µM, first compound 0.000949 µM
[8] = second compound 0.316 µM, first compound 0.003 µM
[9] = second compound 0.316 µM, first compound 0.00949 µM
[10] = second compound 0.316 µM, first compound 0.03 µM
[11] = second compound 0.316 µM, first compound 0.0949 µM
[12] = second compound 0.316 µM, first compound 0.3 µM
[13] = second compound 1 µM, first compound 0.000949 µM
[14] = second compound 1 µM, first compound 0.003 µM
[15] = second compound 1 µM, first compound 0.00949 µM
[16] = second compound 1 µM, first compound 0.03 µM
[17] = second compound 1 µM, first compound 0.0949 µM
[18] = second compound 1 µM, first compound 0.3 µM
[19] = second compound 3.16 µM, first compound 0.000949 µM
[20] = second compound 3.16 µM, first compound 0.003 µM
[21] = second compound 3.16 µM, first compound 0.00949 µM
[22] = second compound 3.16 µM, first compound 0.03 µM
[23] = second compound 3.16 µM, first compound 0.0949 µM
[24] = second compound 3.16 µM, first compound 0.3 µM
[25] = second compound 10 µM, first compound 0.000949 µM
[26] = second compound 10 µM, first compound 0.003 µM
[27] = second compound 10 µM, first compound 0.00949 µM
[28] = second compound 10 µM, first compound 0.03 µM
[29] = second compound 10 µM, first compound 0.0949 µM
[30] = second compound 10 µM, first compound 0.3 µM

CCc1c2c(nc3ccc(O)cc13)-c1cc3c(c(=O)n1C2)COC(=O)[C@]3(O)CC + NC1CC1c1ccc(-c2cccc(O)c2)cc1
9.63 nM: IC50 (second compound 0.316 µM)
inactive: viability, T/C [1] 119% | viability, T/C [2] 111% | viability, T/C [3] 42% | viability, T/C [7] 107% | viability, T/C [8] 93.1% | viability, T/C [9] 52.4% | viability, T/C [13] 112% | viability, T/C [14] 94.9% | viability, T/C [15] 51.1% | viability, T/C [19] 102% | viability, T/C [20] 81.2% | viability, T/C [21] 37.8% | viability, T/C [25] 90.9% | viability, T/C [26] 82.7% | viability, T/C [27] 27.4%
8.32 nM: IC50 (second compound 0.1 µM)
active: viability, T/C [4] 4.2% | viability, T/C [5] 1.09% | viability, T/C [6] 0.82% | viability, T/C [10] 4.27% | viability, T/C [11] 1.53% | viability, T/C [12] 1.11% | viability, T/C [16] 3.65% | viability, T/C [17] 1.2% | viability, T/C [18] 0.86% | viability, T/C [22] 2.23% | viability, T/C [23] 1.01% | viability, T/C [24] 0.7% | viability, T/C [28] 1.9% | viability, T/C [29] 0.86% | viability, T/C [30] 0.72%
5.92 nM: IC50 (second compound 10 µM)
9.19 nM: IC50 (second compound 1 µM)
6.69 nM: IC50 (second compound 3.16 µM)

Nc1ccccc1NC(=O)c1ccc(CNC(=O)OCc2cccnc2)cc1 + NC1CC1c1ccc(-c2cccc(O)c2)cc1
active: viability, T/C [6] 5.54% | viability, T/C (second compound 0.1 µM, first compound 0.949 µM) 0.32% | viability, T/C (second compound 0.1 µM, first compound 3 µM) 0.4% | viability, T/C [12] 7.37% | viability, T/C (second compound 0.316 µM, first compound 0.949 µM) 0.32% | viability, T/C (second compound 0.316 µM, first compound 3 µM) 0.32% | viability, T/C (second compound 1 µM, first compound 0.949 µM) 1.9% | viability, T/C (second compound 1 µM, first compound 3 µM) 0.59% | viability, T/C [24] 7.06% | viability, T/C (second compound 3.16 µM, first compound 0.949 µM) 0.28% | viability, T/C (second compound 3.16 µM, first compound 3 µM) 0.39% | viability, T/C (second compound 10 µM, first compound 0.949 µM) 0.92% | viability, T/C (second compound 10 µM, first compound 3 µM) 0.55%
63 nM: IC50 (second compound 0.316 µM)
104 nM: IC50 (second compound 10 µM)
63.6 nM: IC50 (second compound 1 µM)
57.8 nM: IC50 (second compound 0.1 µM)
67.7 nM: IC50 (second compound 3.16 µM)
inactive: viability, T/C [3] 77.6% | viability, T/C [4] 66.3% | viability, T/C [5] 37.7% | viability, T/C [9] 78.8% | viability, T/C [10] 65.5% | viability, T/C [11] 42% | viability, T/C [15] 80.2% | viability, T/C [16] 63.9% | viability, T/C [17] 43.9% | viability, T/C [18] 8.12% | viability, T/C [21] 79.5% | viability, T/C [22] 70.1% | viability, T/C [23] 41.9% | viability, T/C [27] 82.2% | viability, T/C [28] 70.6% | viability, T/C [29] 55% | viability, T/C [30] 10.2%

Nc1ccn(C2OC(CO)C(O)C2(F)F)c(=O)n1 (stereo not given) + NC1CC1c1ccc(-c2cccc(O)c2)cc1
inactive: viability, T/C [1] 119% | viability, T/C [2] 105% | viability, T/C [3] 97.4% | viability, T/C [4] 65.2% | viability, T/C [5] 68.9% | viability, T/C [6] 62.6% | viability, T/C [7] 106% | viability, T/C [8] 107% | viability, T/C [9] 79.7% | viability, T/C [10] 66.8% | viability, T/C [11] 67.3% | viability, T/C [12] 67.7% | viability, T/C [13] 108% | viability, T/C [14] 108% | viability, T/C [15] 75.6% | viability, T/C [16] 68.7% | viability, T/C [17] 61.6% | viability, T/C [18] 71.2% | viability, T/C [19] 117% | viability, T/C [20] 104% | viability, T/C [21] 96.4% | viability, T/C [22] 76.2% | viability, T/C [23] 67.2% | viability, T/C [24] 72% | viability, T/C [25] 111% | viability, T/C [26] 98.2% | viability, T/C [27] 91.3% | viability, T/C [28] 71.9% | viability, T/C [29] 72.5% | viability, T/C [30] 69.3%
> 300 nM: IC50 (second compound 0.1 µM) | IC50 (second compound 0.316 µM) | IC50 (second compound 1 µM) | IC50 (second compound 3.16 µM) | IC50 (second compound 10 µM)

O=C(c1cc(Cc2n[nH]c(=O)c3ccccc23)ccc1F)N1CCN(C(=O)C2CC2)CC1 + NC1CC1c1ccc(-c2cccc(O)c2)cc1
> 10000 nM: IC50 (second compound 0.1 µM) | IC50 (second compound 0.316 µM) | IC50 (second compound 1 µM) | IC50 (second compound 3.16 µM) | IC50 (second compound 10 µM)
inactive: viability, T/C (second compound 0.1 µM, first compound 0.0316 µM) 85.5% | viability, T/C (second compound 0.1 µM, first compound 0.1 µM) 85.3% | viability, T/C (second compound 0.1 µM, first compound 0.316 µM) 89.4% | viability, T/C (second compound 0.1 µM, first compound 1 µM) 90.4% | viability, T/C (second compound 0.1 µM, first compound 3.16 µM) 87.2% | viability, T/C (second compound 0.1 µM, first compound 10 µM) 92.3% | viability, T/C (second compound 0.316 µM, first compound 0.0316 µM) 98% | viability, T/C (second compound 0.316 µM, first compound 0.1 µM) 90.3% | viability, T/C (second compound 0.316 µM, first compound 0.316 µM) 86.5% | viability, T/C (second compound 0.316 µM, first compound 1 µM) 86.2% | viability, T/C (second compound 0.316 µM, first compound 3.16 µM) 91.7% | viability, T/C (second compound 0.316 µM, first compound 10 µM) 83% | viability, T/C (second compound 1 µM, first compound 0.0316 µM) 90.8% | viability, T/C (second compound 1 µM, first compound 0.1 µM) 88.1% | viability, T/C (second compound 1 µM, first compound 0.316 µM) 95.8% | viability, T/C (second compound 1 µM, first compound 1 µM) 92.1% | viability, T/C (second compound 1 µM, first compound 3.16 µM) 87.2% | viability, T/C (second compound 1 µM, first compound 10 µM) 78% | viability, T/C (second compound 3.16 µM, first compound 0.0316 µM) 90.4% | viability, T/C (second compound 3.16 µM, first compound 0.1 µM) 99.3% | viability, T/C (second compound 3.16 µM, first compound 0.316 µM) 99.3% | viability, T/C (second compound 3.16 µM, first compound 1 µM) 92.3% | viability, T/C (second compound 3.16 µM, first compound 3.16 µM) 88.9% | viability, T/C (second compound 3.16 µM, first compound 10 µM) 76.7% | viability, T/C (second compound 10 µM, first compound 0.0316 µM) 84.9% | viability, T/C (second compound 10 µM, first compound 0.1 µM) 93.9% | viability, T/C (second compound 10 µM, first compound 0.316 µM) 88.9% | viability, T/C (second compound 10 µM, first compound 1 µM) 83% | viability, T/C (second compound 10 µM, first compound 3.16 µM) 83% | viability, T/C (second compound 10 µM, first compound 10 µM) 80.9%
